One data set has as its target T1, COX-1 (Ovis aries, UniProt P05979).
T1 construct: purchased Biovision K548
T1 sequence (P05979 25-600): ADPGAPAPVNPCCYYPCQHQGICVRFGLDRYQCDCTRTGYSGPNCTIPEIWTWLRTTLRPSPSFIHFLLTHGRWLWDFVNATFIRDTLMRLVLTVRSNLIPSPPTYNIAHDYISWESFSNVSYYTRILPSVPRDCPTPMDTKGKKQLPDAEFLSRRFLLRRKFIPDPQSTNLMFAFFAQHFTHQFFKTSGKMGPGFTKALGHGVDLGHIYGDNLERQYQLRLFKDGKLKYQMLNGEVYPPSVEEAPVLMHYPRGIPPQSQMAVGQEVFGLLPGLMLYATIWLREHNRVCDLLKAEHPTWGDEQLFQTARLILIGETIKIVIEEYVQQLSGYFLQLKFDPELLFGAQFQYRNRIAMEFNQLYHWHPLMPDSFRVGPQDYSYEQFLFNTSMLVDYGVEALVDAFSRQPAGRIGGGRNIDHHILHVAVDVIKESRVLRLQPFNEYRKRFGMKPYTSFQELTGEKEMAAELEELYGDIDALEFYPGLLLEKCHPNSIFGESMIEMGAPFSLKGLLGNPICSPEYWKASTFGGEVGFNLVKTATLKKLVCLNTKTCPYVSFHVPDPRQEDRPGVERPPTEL
The data set can be described thus: In vitro COX-1 inhibition (COX-1 Inhibitor Screening Kit-K548, Biovision). To be noted: mean of six values ± standard deviation. In kind it is biochemical. How it is done: (§1) The IC50 value of the tested compounds was determined.
COX-1 inhibitor Screening Protocol: Dissolve the tested compounds in DMSO. Use COX assay buffer to dilute the relevant test concentration by 10X before using. Place 10 µl of diluted test inhibitor or assay buffer in the specified wells instead of the sample screen (S) or enzyme control (EC; no inhibitor). To one of the wells, add 2 µl of SC560 and 8 µl of COX Assay Buffer as an inhibitor control (IC). Before using, combine 2 µl of COX Cofactor with 398 µl of COX Assay Buffer to dilute COX cofactor 200 times. Blend thoroughly. Just before using, mix 5 µl of the provided arachidonic acid with 5 µl of NaOH to make the arachidonic acid solution. Combine quickly using a vortex. To dilute the arachidonic acid/NaOH solution 10 times, add 90 µl of water. There should be 80 µl of reaction mix in each well. Using a multi-channel pipette, add 10 µl of diluted arachidonic acid/NaOH solution to each well to initiate all the reactions at once.

The target of the next data set is T2, COX-2 (Homo sapiens, UniProt P35354).
T2 construct: purchased Biovision K547
T2 sequence (P35354 18-604): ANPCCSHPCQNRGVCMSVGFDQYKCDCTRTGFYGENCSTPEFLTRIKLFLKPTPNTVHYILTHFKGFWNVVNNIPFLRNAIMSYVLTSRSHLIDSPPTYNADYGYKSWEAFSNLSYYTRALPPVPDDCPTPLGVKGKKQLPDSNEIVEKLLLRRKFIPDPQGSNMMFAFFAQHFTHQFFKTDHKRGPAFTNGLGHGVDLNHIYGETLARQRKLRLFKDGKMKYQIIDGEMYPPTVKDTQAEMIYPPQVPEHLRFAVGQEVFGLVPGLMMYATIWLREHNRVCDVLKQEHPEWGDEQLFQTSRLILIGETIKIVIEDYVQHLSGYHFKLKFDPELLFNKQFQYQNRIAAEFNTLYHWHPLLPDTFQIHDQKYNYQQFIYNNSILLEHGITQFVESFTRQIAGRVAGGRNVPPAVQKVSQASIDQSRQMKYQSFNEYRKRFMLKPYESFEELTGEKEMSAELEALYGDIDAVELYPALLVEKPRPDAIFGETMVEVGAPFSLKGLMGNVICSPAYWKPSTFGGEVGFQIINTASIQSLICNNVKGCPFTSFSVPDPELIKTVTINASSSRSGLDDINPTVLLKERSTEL
The data set can be described thus: In vitro COX-2 inhibition (COX-2 Inhibitor Screening Kit-K547, Biovision). To be noted: for IC50: mean of six values ± standard deviation. In kind it is biochemical. How it is done: as §1
COX-2 inhibitor Screening Protocol: Dissolve the tested compounds in DMSO. Use COX Assay Buffer to dilute the relevant test concentration by 10X before using. Place 10 µl of diluted test inhibitor or Assay Buffer in the specified wells instead of the sample screen (S) or enzyme control (EC; no inhibitor). […] Before using, combine 2 µl of COX Cofactor with 398 µl of COX Assay Buffer to dilute COX Cofactor 200 times. Blend thoroughly. Just before using, mix 5 µl of the provided arachidonic acid with 5 µl of NaOH to make the arachidonic acid solution. Combine quickly using a vortex. To dilute the arachidonic acid/NaOH solution 10 times, add 90 µl of water. There should be 80 µl of reaction mix in each well. Using a multi-channel pipette, add 10 µl of diluted arachidonic acid/NaOH solution into each well to initiate the reactions concurrently.

The nature of a further data set: MTS cytotoxicity assay. In kind it is cell-based. The note with it: mouse, RAW 264.7 macrophages (heading: LPS-induced), read-out: Cytotoxicity IC50 (LPS-induced RAW 264.7 cells). The method, then: Using Dulbecco’s Modified Eagle Medium (DMEM, Biowest L0060) supplemented with 10% foetal bovine serum (FBS) (Biowest, S1810) and 1% anti-biotic and anti-mycotic (Biowest, L0010-100), the RAW264.7 macrophage cell line (ATCC ® TIB-71TM) was cultivated. The cells were then incubated at 37 °C with 5% CO2 until they were confluent, which should be between 70 and 80%. After two to three days, the growth media was regularly changed. Trypsin–EDTA was then used to wash and collect the cells (Biowest, L0931-500).
The MTS (3-(4,5-dimethylthiazol-2-yl)-5-(3-carboxymethoxy-phenyl)-2-(4-sulfophenyl)-2H-tetrazolium) test (Promega, ab197010) was used to determine cell viability. In short, a 96-well plate was seeded with 5 × 10^3 cells per well, and the cells were then incubated for 24 h at 37 °C and 5% CO2. The cells were then re-incubated for 24 h at 37 °C and 5% CO2 after the medium was discarded and replaced with 180 µl of fresh growth media and 20 µl of sample (1000 ug, 250 ug, 63 ug, 16 ug, and 4 ug µg/mL). 20 µl of MTS was then added to each well, and the mixture was incubated for three hours at 37 °C with 5% CO2. […] Control cells were those that received no treatment.

Data set [1] has as its system carrageenan-induced rat paw edema. The data set is described as follows: Carrageenan-induced rat paw edema assay. In kind it is in vivo.
Another data set has as its system PGE2. The data set can be described thus: PGE2 production in LPS-activated RAW 264.7 macrophages (ELISA). The note with it: Mus musculus, RAW264.7, read-out: PGE2 IC50.

In the case of `CCOC(=O)COc1ccc(C2=NN(c3ccc(S(C)(=O)=O)cc3)C(c3ccc(OC)cc3)C2)cc1` (stereo not shown) [Compound 15c, Ethyl 2-(4-(5-(4-methoxyphenyl)-1-(4-(methylsulfonyl)phenyl)-4,5-dihydro-1H-pyrazol-3-yl)phenoxy)acetate], the IC50 was found to be 11.3 ± 0.45 µM at COX-1, 0.397 ± 0.013 µM against COX-2 and 0.52 ± 0.029 µM in the data set with PGE2. Further, the “COX-2 S.I.” value at COX-2 (COX-1 IC50/COX-2 IC50) is 28.56. The concentration for half-maximal inhibition (IC50) at 24 h in the data set “MTS cytotoxicity assay” stood at 301 ± 10.7 µM. For the same compound, the results for the “% inhibition (edema)” value in data set [1] (10 mg/kg) and in data set [1] (25 mg/kg) were 22.32% and 31.51%, respectively.

For `CCOC(=O)COc1ccc(C2=NN(c3ccc(S(C)(=O)=O)cc3)C(c3ccc(Br)cc3)C2)cc1` (stereo not shown) [Compound 15 h, Ethyl 2-(4-(5-(4-bromophenyl)-1-(4-(methylsulfonyl)phenyl)-4,5-dihydro-1H-pyrazol-3-yl)phenoxy)acetate], the IC50 against COX-1 is 6.88 ± 0.25 µM; on COX-2, 0.103 ± 0.003 µM; in the data set with PGE2, 0.28 ± 0.032 µM. Besides, in “MTS cytotoxicity assay”, the IC50 at 24 h came out at 179 ± 6.37 µM. For the same compound, the “% inhibition (edema)” value is reported as 19.49% in data set [1] (10 mg/kg) and 37.98% in data set [1] (25 mg/kg).

In the case of `CCOC(=O)COc1ccc(C2=NN(c3ccc(S(C)(=O)=O)cc3)C(c3cc(OC)c(OC)c(OC)c3)C2)cc1` (stereo not shown) [Compound 15d, Ethyl 2-(4-(1-(4-(methylsulfonyl)phenyl)-5-(3,4,5-trimethoxyphenyl)-4,5-dihydro-1H-pyrazol-3-yl)phenoxy)acetate], the IC50 on COX-1 stood at 15.5 ± 0.61 µM; at COX-2 it was 0.221 ± 0.007 µM; in the data set on PGE2, 0.33 ± 0.021 µM. For the same compound, the IC50 at 24 h in “MTS cytotoxicity assay” came to 183 ± 6.52 µM. Moreover, the “% inhibition (edema)” value was determined as 29.52% in data set [1] (10 mg/kg) and 36.61% in data set [1] (25 mg/kg).

The values above are taken from publication PMC12926254, “Novel pyrazole carboxylate derivatives as lonazolac bioisosteres with selective COX-2 inhibition: design, synthesis and anti-inflammatory activity” (Molecular Diversity, 2025).
